Series [1] concerns Abutilon. Nature of the series: Pre-emergence test. The conditions noted are these: application rate of 250 g/ha, after three weeks, 0%=no effect, 100%=total destruction. It counts as in vivo. On the procedure: (§1) Pre-Emergence Test Solvent: 5 parts by weight of acetone Emulsifier: 1 part by weight of alkylaryl polyglycol ether To produce a suitable preparation of active compound, 1 part by weight of active compound is mixed with the stated amount of solvent, the stated amount of emulsifier is added and the concentrate is diluted with water to the desired concentration. Seeds of the test plants are sown in normal soil. After about 24 hours, the soil is sprayed with the preparation of active compound in such a way as to apply the particular amounts of active compound desired per unit area. The concentration of the spray liquor is chosen such that the particular amounts of active compound desired are applied in 1000 l of water/ha. After three weeks, the degree of damage to the plants is rated in % damage in comparison to the development of the untreated control. The figures denote: 0%=no effect (like untreated control) 100%=total destruction

Series [2] relates to Amaranthus. Briefly: Pre-emergence test. It counts as in vivo. The conditions noted are these: application rate of 250 g/ha, after three weeks, 0%=no effect, 100%=total destruction. As for the experimental part:
as §1

Series [3] relates to Setaria. Nature of the series: Pre-emergence test. The conditions noted are these: application rate of 250 g/ha, after three weeks, 0%=no effect, 100%=total destruction. It counts as in vivo. As for the experimental part: as §1
Series [4] relates to Sinapis. Briefly: Pre-emergence test. The conditions noted are these: application rate of 250 g/ha, after three weeks, 0%=no effect, 100%=total destruction. It counts as in vivo. On the procedure:
as §1

Series [5] relates to Abutilon. Nature of the series: Post-emergence test. It counts as in vivo. The conditions noted are these: application rate of 250 glha, after three weeks, 0%=no effect, 100%=total destruction. On the procedure: (§2) Post-Emergence Test Solvent: 5 parts by weight of acetone Emulsifier: 1 part by weight of alkylaryl polyglycol ether To produce a suitable preparation of active compound, 1 part by weight of active compound is mixed with the stated amount of solvent, the stated amount of emulsifier is added and the concentrate is diluted with water to the desired concentration. Test plants which have a height of 5-15 cm are sprayed with the preparation of active compound in such a way that the particular amounts of active compound desired are applied per unit area. The concentration of the spray liquor is chosen such that the particular amounts of active compound desired are applied in […] of water/ha. After three weeks, the degree of damage to the plants is rated in % damage in comparison to the development of the untreated control. The figures denote: 0%=no effect (like untreated control) 100%=total destruction

The subject of series [6] is Amaranthus. Nature of the series: Post-emergence test. It is filed as in vivo. The conditions noted are these: application rate of 250 glha, after three weeks, 0%=no effect, 100%=total destruction. As for the experimental part:
as §2

The test system of series [7] is Setaria. Briefly: Post-emergence test. The conditions noted are these: application rate of 250 glha, after three weeks, 0%=no effect, 100%=total destruction. It counts as in vivo. On the procedure:
as §2

In series [8] the test system is Sinapis. Briefly: Post-emergence test. It counts as in vivo. The conditions noted are these: application rate of 250 glha, after three weeks, 0%=no effect, 100%=total destruction. On the procedure:
as §2

Series [9] has as its system mustard beetle larvae (Phaedon cochleariae). Nature of the series: Phaedon larvae test. It counts as in vivo. The conditions noted are these: active compound concentration of 0.1%; after 7 days; dipped cabbage leaves (Brassica oleracea). As for the experimental part: Phaedon Larvae Test Solvent: 7 parts by weight of dimethylformamide Emulsifier: 1 part by weight of alkylaryl polyglycol ether To produce a suitable preparation of active compound, 1 part by weight of active compound is mixed with the stated amount of solvent and the stated amount of emulsifier, and the concentrate is diluted with water to the desired concentration. Cabbage leaves (Brassica oleracea) are treated by being dipped into the preparation of active compound of the desired concentration and are populated with mustard beetle larvae (Phaedon cochleariae) while the leaves are still moist. After the desired period of time, the kill in % is determined. 100% means that all beetle larvae have been killed; 0% means that none of the beetle larvae have been killed.

Turning to `O=c1cc(C(F)(F)F)[nH]c(=O)n1-c1ccc(OCc2ccc(Cl)nc2)cc1F` [Example 1, 1-[2-fluoro-4-(2-chloro-pyridin-5-y1-methoxy)-phenyl]-4-trifluoromethyl-3,6-dihydro-2,6-dioxo-1(2H)-pyrimidine], the melting point is 212 °C.

Regarding `Nn1c(C(F)(F)F)cc(=O)n(-c2ccc(OCc3ccc(Cl)nc3)cc2F)c1=O` [compound 3], the “degree of damage to the plants (% damage), Abutilon” value (“degree … (% damage), Abutilon” below) in the series with Abutilon [1] and with Abutilon [5] was 100% in each case. Besides, the “degree of damage to the plants (% damage), Amaranthus” value (“degree … (% damage), Amaranthus” for short) in the series with Amaranthus [2] and in the series with Amaranthus [6] was 100% each time. Further, the “degree of damage to the plants (% damage), Setaria” value (“degree … (% damage), Setaria” below) in the series with Setaria [3] and in the series with Setaria [7] was 100% each time. Moreover, the “degree of damage to the plants (% damage), Sinapis” value (“degree … (% damage), Sinapis” below) in the series on Sinapis [4] and in the series with Sinapis [8] was 100% each time. The same molecule returned a kill in % in series [9] of 100%.

`Cn1c(C(F)(F)F)cc(=O)n(-c2ccc(OCc3ccc(Cl)nc3)cc2F)c1=O` [Preparation Example 2, 1-[2-fluoro4-(2-chloro-pyridin-5-yl-methoxy)-phenyl]-3-methyl4-trifluoromethyl-3,6-dihydro-2,6-dioxo-1 (2H)-pyrimidine]: the melting point worked out at 164 °C. In the series with Abutilon [1], the “degree … (% damage), Abutilon” value is recorded as 100%. Besides, the “degree … (% damage), Amaranthus” value in the series on Amaranthus [2] came out at 100%. Also, the “degree … (% damage), Setaria” value in the series with Setaria [3] was 100%. For the same molecule, the “degree … (% damage), Sinapis” value in the series on Sinapis [4] stood at 100%. Further, the “degree … (% damage), Abutilon” value in the series on Abutilon [5] turned out to be 100%. The “degree … (% damage), Amaranthus” value with Amaranthus [6] is 100%. Besides, the “degree … (% damage), Setaria” value in the series with Setaria [7] is reported as 100%. The “degree … (% damage), Sinapis” value in the series on Sinapis [8] turned out to be 100%.

Turning to `Nn1c(C(F)(F)F)cc(=O)n(-c2ccc(OCc3ccc(Cl)nc3)cc2F)c1=O` [Preparation Example 3, 3-amino-1-[2-fluoro4-(2-chloro-pyridin-5-yl-methoxy)-phenyl]4-trifluoromethyl-3,6-dihydro-2,6-dioxo-1 (2H)-pyrimidine], the melting point was 171 °C.

Usually melting point stands for the temperature, or range, at which the solid turns liquid.

Values taken from patent publication US6448203B1, “Substituted aryluracils” (Bayer Aktiengesellschaft, priority 1997, dated 2002).
